From patent publication US20250144094A1 (Erasca, Inc., priority 2021, published 2025)

Target: Recombinant human ULK1 (1-649) (Homo sapiens (Human), UniProt O75385)
Test: ULK1 ADP Glo kinase activity assay, new method (ULKtide peptide substrate)
Settings: 25° C., 40 minutes, read-out: ULK1 biochemical IC50
Experimental: Recombinant human ULK1 (1-649) protein expressed in Sf9 insect cells was obtained from SignalChem (Vancouver, BC), catalog #U01-11G. Active kinase was purified via N-terminal GST tag to >85% purity.
ADP GLO Kinase Assay Reagents were obtained from Promega Corp (Madison, WI), catalog #V9104.
Synthetic peptide substrate (ULKtide) with the amino acid sequence YANWLAASIYLDGKKK was obtained from ThermoFisher Scientific USA.
ULK1 inhibitor potency was determined using the luminescent ADP Glo Kinase Assay (Promega), a universal ADP detection system that measures kinase activity by quantifying the amount of ADP produced during a kinase reaction. ULK1 kinase reactions are performed in a standard 96-well microplate (20 μL reaction volume) at 25° C. for 40 minutes in the presence or absence of the test compound (12-point dilution series starting at 10 μM). Addition of peptide substrate and ATP initiates the kinase reaction.
The standard ADP Glo assay is performed in two steps. In step one, following the kinase reaction, an equal volume of ADP-Glo™ Reagent (20 μL) is added to terminate the kinase reaction and deplete the remaining ATP. In the second step, the Kinase Detection Reagent (10 μL) is added to simultaneously convert ADP to ATP and allow the newly synthesized ATP to be measured using a luciferase/luciferin reaction. Step two of the ADP Glo assay is performed in a white 384-well plate (20 μL final volume). Thirty minutes after the addition of the Detection reagent, light generated from the luciferase reaction is measured (1 second exposure) using a microplate compatible luminometer (CLARIOstar, BMG Labtech).
Inhibition of ULK1 kinase activity is determined for each test compound by comparison to DMSO only control wells. Inhibitor IC50 was calculated by plotting the change in luminescence after 30 minutes (response) versus inhibitor concentration (in log molar) then applying the four-parameter variable slope curve fit (GraphPad Prism). Inhibition of ULK1 in biochemical assay is found in Table 4.

Recombinant human ULK1 (1-649), sequence (O75385 1-649): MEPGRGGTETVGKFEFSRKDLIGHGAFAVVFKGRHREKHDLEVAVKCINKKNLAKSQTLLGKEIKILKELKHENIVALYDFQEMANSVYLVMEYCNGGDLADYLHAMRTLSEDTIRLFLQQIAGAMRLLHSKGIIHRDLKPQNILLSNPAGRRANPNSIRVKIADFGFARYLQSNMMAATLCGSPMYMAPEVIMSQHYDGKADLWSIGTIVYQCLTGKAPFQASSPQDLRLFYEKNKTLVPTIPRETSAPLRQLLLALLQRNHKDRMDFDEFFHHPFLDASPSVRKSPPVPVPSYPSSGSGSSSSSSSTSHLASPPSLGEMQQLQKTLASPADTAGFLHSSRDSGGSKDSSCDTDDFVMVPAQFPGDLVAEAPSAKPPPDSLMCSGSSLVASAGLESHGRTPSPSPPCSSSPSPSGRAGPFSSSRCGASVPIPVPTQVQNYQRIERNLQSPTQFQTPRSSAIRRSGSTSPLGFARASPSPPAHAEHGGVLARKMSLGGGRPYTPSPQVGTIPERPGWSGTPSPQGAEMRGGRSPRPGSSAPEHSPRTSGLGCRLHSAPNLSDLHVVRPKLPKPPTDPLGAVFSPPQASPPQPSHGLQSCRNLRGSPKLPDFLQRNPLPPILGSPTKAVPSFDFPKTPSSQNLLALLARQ

IC50 [nM]	SMILES
≤ 5	Cc1cc2c(cc1Nc1ncc(C(F)(F)F)c(-c3cc4c(s3)C(=O)N(C)CCS4(=O)=O)n1)CCNC2 [Example 184, 4-methyl-7-(2-((7-methyl-1,2,3,4-tetrahydroisoquinolin-6-yl)amino)-5-(trifluoromethyl)pyrimidin-4-yl)-3,4-dihydrothieno[2,3-f][1,4]thiazepin-5(2H)-one 1,1-dioxide]
≤ 5	CCN1CCc2cc(Nc3ncc(C(F)(F)F)c(-c4cc5c(s4)C(=O)N(C)CCS5(=O)=O)n3)c(C)cc2C1 [Example 185, 7-(2-((2-ethyl-7-methyl-1,2,3,4-tetrahydroisoquinolin-6-yl)amino)-5-(trifluoromethyl)pyrimidin-4-yl)-4-methyl-3,4-dihydrothieno[2,3-f][1,4]thiazepin-5(2H)-one 1,1-dioxide]
≤ 5	CCN1CCc2cc(Nc3ncc(C(F)(F)F)c(-c4cc5c(s4)C(=O)N(C)CCS5(=O)=O)n3)c(C3CC3)cc2C1 [Example 186, 7-(2-((7-cyclopropyl-2-ethyl-1,2,3,4-tetrahydroisoquinolin-6-yl)amino)-5-(trifluoromethyl)pyrimidin-4-yl)-4-methyl-3,4-dihydrothieno[2,3-f][1,4]thiazepin-5(2H)-one 1,1-dioxide]
≤ 5	Cc1nn(CCN(C)C)cc1Nc1ncc(C(F)(F)F)c(-c2cc3c(s2)C(=O)N(C)CCS3(=O)=O)n1 [Example 187, 7-(2-((1-(2-(dimethylamino)ethyl)-3-methyl-1H-pyrazol-4-yl)amino)-5-(trifluoromethyl)pyrimidin-4-yl)-4-methyl-3,4-dihydrothieno[2,3-f][1,4]thiazepin-5(2H)-one 1,1-dioxide]
≤ 5	CCN1CCc2cc(Nc3ncc(C(F)(F)F)c(-c4cc5c(s4)C(=O)N(C)CCS5(=O)=O)n3)c(SC)cc2C1 [Example 188, 7-(2-((2-ethyl-7-(methylthio)-1,2,3,4-tetrahydroisoquinolin-6-yl)amino)-5-(trifluoromethyl)pyrimidin-4-yl)-4-methyl-3,4-dihydrothieno[2,3-f][1,4]thiazepin-5(2H)-one 1,1-dioxide]
50 to 100	CN1CCS(=O)(=O)c2cc(-c3nc(Nc4cc(N5CCNCC5)ccc4Cl)ncc3C(F)(F)F)sc2C1=O [Example 189, 7-(2-((2-chloro-5-(piperazin-1-yl)phenyl)amino)-5-(trifluoromethyl)pyrimidin-4-yl)-4-methyl-3,4-dihydrothieno[2,3-f][1,4]thiazepin-5(2H)-one 1,1-dioxide]
≤ 5	CCN1Cc2cc(F)c(Nc3ncc(C(F)(F)F)c(-c4cc5c(s4)C(=O)N(C)CCS5(=O)=O)n3)cc2C1 [Example 190, 7-(2-((2-ethyl-6-fluoroisoindolin-5-yl)amino)-5-(trifluoromethyl)pyrimidin-4-yl)-4-methyl-3,4-dihydrothieno[2,3-f][1,4]thiazepin-5(2H)-one 1,1-dioxide]
50 to 100	CCN1Cc2ccc(Nc3ncc(C(F)(F)F)c(-c4cc5c(s4)C(=O)N(C)CCS5(=O)=O)n3)c(C3CC3)c2C1 [Example 191, 7-(2-((4-cyclopropyl-2-ethylisoindolin-5-yl)amino)-5-(trifluoromethyl)pyrimidin-4-yl)-4-methyl-3,4-dihydrothieno[2,3-f][1,4]thiazepin-5(2H)-one 1,1-dioxide]
≤ 5	CCN1Cc2cc(C)c(Nc3ncc(C(F)(F)F)c(-c4cc5c(s4)C(=O)N(C)CCS5(=O)=O)n3)cc2C1 [Example 192, 7-(2-((2-ethyl-6-methylisoindolin-5-yl)amino)-5-(trifluoromethyl)pyrimidin-4-yl)-4-methyl-3,4-dihydrothieno[2,3-f][1,4]thiazepin-5(2H)-one 1,1-dioxide]
≤ 5	CN1CCS(=O)(=O)c2cc(-c3nc(Nc4ccc(N5CCNCC5)cc4Cl)ncc3C(F)(F)F)sc2C1=O [Example 193, 7-(2-((2-chloro-4-(piperazin-1-yl)phenyl)amino)-5-(trifluoromethyl)pyrimidin-4-yl)-4-methyl-3,4-dihydrothieno[2,3-f][1,4]thiazepin-5(2H)-one 1,1-dioxide]
≤ 5	CCN1CCN(c2ccc(Nc3ncc(C(F)(F)F)c(-c4cc5c(s4)C(=O)N(C)CCS5(=O)=O)n3)c(Cl)c2)CC1 [Example 195, 7-(2-((2-chloro-4-(4-ethylpiperazin-1-yl)phenyl)amino)-5-(trifluoromethyl)pyrimidin-4-yl)-4-methyl-3,4-dihydrothieno[2,3-f][1,4]thiazepin-5(2H)-one 1,1-dioxide]
≤ 5	CCc1cc(N2CCN(C)CC2)ccc1Nc1ncc(C(F)(F)F)c(-c2cc3c(s2)C(=O)N(C)CCS3(=O)=O)n1 [Example 196, 7-(2-((2-ethyl-4-(4-methylpiperazin-1-yl)phenyl)amino)-5-(trifluoromethyl)pyrimidin-4-yl)-4-methyl-3,4-dihydrothieno[2,3-f][1,4]thiazepin-5(2H)-one 1,1-dioxide]
≤ 5	CCc1cc(N2CCN(CC)CC2)ccc1Nc1ncc(C(F)(F)F)c(-c2cc3c(s2)C(=O)N(C)CCS3(=O)=O)n1 [Example 197, 7-(2-((2-ethyl-4-(4-ethylpiperazin-1-yl)phenyl)amino)-5-(trifluoromethyl)pyrimidin-4-yl)-4-methyl-3,4-dihydrothieno[2,3-f][1,4]thiazepin-5(2H)-one 1,1-dioxide]
≤ 5	CCN1CCS(=O)(=O)c2cc(-c3nc(Nc4cc5c(cc4C4CC4)CNCC5)ncc3C(F)(F)F)sc2C1=O [Example 198, 7-(2-((7-cyclopropyl-1,2,3,4-tetrahydroisoquinolin-6-yl)amino)-5-(trifluoromethyl)pyrimidin-4-yl)-4-ethyl-3,4-dihydrothieno[2,3-f][1,4]thiazepin-5(2H)-one 1,1-dioxide]
≤ 5	CCN1CCc2cc(Nc3ncc(C(F)(F)F)c(-c4cc5c(s4)C(=O)N(CC)CCS5(=O)=O)n3)c(C3CC3)cc2C1 [Example 199, 7-(2-((7-cyclopropyl-2-ethyl-1,2,3,4-tetrahydroisoquinolin-6-yl)amino)-5-(trifluoromethyl)pyrimidin-4-yl)-4-ethyl-3,4-dihydrothieno[2,3-f][1,4]thiazepin-5(2H)-one 1,1-dioxide]
> 100	CN1CCS(=O)(=O)c2cc(-c3nc(Nc4cc5nnn(C)c5cc4Cl)ncc3C(F)(F)F)sc2C1=O [Example 200, 7-(2-((6-chloro-1-methyl-1H-benzo[d][1,2,3]triazol-5-yl)amino)-5-(trifluoromethyl)pyrimidin-4-yl)-4-methyl-3,4-dihydrothieno[2,3-f][1,4]thiazepin-5(2H)-one 1,1-dioxide]
≤ 5	O=C1c2sc(-c3nc(Nc4cc5c(cc4Cl)CCNC5)ncc3C(F)(F)F)cc2S(=O)(=O)CCN1C1CC1 [Example 201, 7-(2-((6-chloro-1,2,3,4-tetrahydroisoquinolin-7-yl)amino)-5-(trifluoromethyl)pyrimidin-4-yl)-4-cyclopropyl-3,4-dihydrothieno[2,3-f][1,4]thiazepin-5(2H)-one 1,1-dioxide]
≤ 5	O=C1c2sc(-c3nc(Nc4cc5c(cc4Cl)CCNC5)ncc3C(F)(F)F)cc2S(=O)(=O)CCN1C1CCC1 [Example 202, 7-(2-((6-chloro-1,2,3,4-tetrahydroisoquinolin-7-yl)amino)-5-(trifluoromethyl)pyrimidin-4-yl)-4-cyclobutyl-3,4-dihydrothieno[2,3-f][1,4]thiazepin-5(2H)-one 1,1-dioxide]
